From patent US8937091B2 (Japan Science and Technology Agency, priority 2009, dated 2015)
Where two headings read alike, the source gives them in different places.

Columns and labels:
[1] = target: TGase (Cavia porcellus, UniProt P08587); type: biochemical; details: for TG level: level with DMSO control designated as 100
Experimental: An enzyme reaction solution (0.1 ml) (100 mM HEPES-NaOH, pH 7.5, 1 mM CaCl2, 20 μM monodansyl cadaverine, 0.05 mg/ml N,N-dimethylcasein, 5 μg/ml TGase) was introduced into wells of a 96-well plate (Nunc, 96 Well Black Plate with Clear Bottom). A test compound was added in concentrations of 0.3, 1.0, 3.0, 10, and 30 μM. The solution and the compound were sufficiently mixed while preventing foaming. The plate was set in the fluorescence drug screening system FDSS 3000 (Hamamatsu Photonics K.K.). TGase-inhibiting activity of the compound was calculated by assaying changes in fluorescence wavelength (at 340 nm) per unit time. […] The assay level at which TGase activity decreased by half in the presence of the test compound was designated as TG 50.
Hereafter, the numerals in parentheses written after the TG level, the SOCE level, and the IICR level correspond to the test compound concentrations. The number following the name of each title compound used in the Examples below represents a compound ID number designated arbitrarily by the present inventors.

[2] = system: IICR (IP3 induced calcium release) in CHO cells; assay: Assay of IICR (IP3 induced calcium release)-inhibiting action; type: cell-based, Chinese hamster; details: for inhibition at 10 µM / inhibition at 30 µM / inhibition at 100 µM: Cricetulus griseus, CHO, CHO cells, 10 μM ATP, read-out: IICR level (percentage of inhibition); for inhibition at 10 µM: test compound 10 μmol; for inhibition at 30 µM: test compound 30 μmol; for inhibition at 100 µM: test compound 100 μmol
In short: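 Inhibition (%) of the intracellular calcium increase triggered by 10 μM ATP, measured in CHO cells in BSS with calcium. Compound given 1 min after the buffer exchange and 2 min before ATP; values reported per compound concentration.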

[3] = system: SOCE (store operated calcium entry) in CHO cells; assay: Assay of SOCE (store operated calcium entry)-inhibiting action; type: cell-based, Chinese hamster; details: Cricetulus griseus, CHO, CHO cells, thapsigargin, read-out: SOCE level (percentage of inhibition); for inhibition at 10 µM: test compound 10 μmol; for inhibition at 30 µM: test compound 30 μmol; for inhibition at 100 µM: test compound 100 μmol
In short: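 CHO cells in calcium-free BSS received compound, then 1 μM thapsigargin 2 min later to deplete stores; after 9 min, 2 mM calcium chloride (final) added. Percent inhibition of the rise in intracellular calcium determined at various compound concentrations.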

| Molecule | TG-activity-inhibiting action or protein-crosslinking-inhibiting action (in words) [1] | IICR-inhibiting activity compared with SOCE-inhibiting activity (in words) [2] | also measured |
| --- | --- | --- | --- |
| 2-(N-2-hydroxy-3-aminopropyl)aminoethyl-5-bromo-2-thienylketone [Example 8853] | strongly | higher than SOCE-inhibiting activity | – |
| 2-(N-t-butylbenzyl)aminoethyl-5-bromo-2-thiophenylketone [Example 8778] | strongly | higher than SOCE-inhibiting activity | – |
| COC(=O)C(CSC)NCCC(=O)c1ccc(Br)s1 (stereo not drawn) [Example 409, N,N-bis(2-(5-bromo-2-thiophenoyl)ethyl)cystinemethylester] | – | – | inhibition at 10 µM [3]: 20%; inhibition at 30 µM [3]: 40%; inhibition at 100 µM [3]: 50%; inhibition at 10 µM [2]: 26%; inhibition at 30 µM [2]: 76%; inhibition at 100 µM [2]: 81% |
| O=C(CCNCCSSCCNCCC(=O)c1ccc(I)s1)c1ccc(I)s1 [Example 410] | – | – | inhibition at 10 µM [3]: 20%; inhibition at 30 µM [3]: 40%; inhibition at 100 µM [3]: 50%; inhibition at 10 µM [2]: 59%; inhibition at 30 µM [2]: 65%; inhibition at 100 µM [2]: 88% |
| CCC(C)N(CCC(=O)c1ccc(I)s1)C(C)CC (stereo not drawn) [Example 411] | – | – | inhibition at 10 µM [3]: 20%; inhibition at 30 µM [3]: 40%; inhibition at 100 µM [3]: 50%; inhibition at 10 µM [2]: 76%; inhibition at 30 µM [2]: 80%; inhibition at 100 µM [2]: 82% |
| CCC(C)N(CCC(=O)c1sccc1Br)C(C)CC (stereo not drawn) [Example 413] | – | – | inhibition at 10 µM [3]: 20%; inhibition at 30 µM [3]: 40%; inhibition at 100 µM [3]: 50%; inhibition at 10 µM [2]: 48%; inhibition at 30 µM [2]: 81%; inhibition at 100 µM [2]: 78% |
| C=CC(=O)c1ccccc1 [Example 8184, acryloylbenzene] | high | – | – |
| C=CC(=O)c1ccc(C)cc1 [Example 8185, 4-methyl-1-acryloylbenzene] | high | – | – |
| C=CC(=O)c1ccc(F)cc1 [Example 8186, 4-fluoro-1-acryloylbenzene] | high | – | – |
| C=CC(=O)c1cc2c(cc1Br)OCO2 [Example 8200, 2-bromo-4,5-dioxymethylene-1-acryloylbenzene] | high | – | – |
| C=CC(=O)c1ccc2c(C)cccc2c1 [Example 8211, 1-methyl-6-acryloylnaphthalene] | high | – | – |
| C=CC(=O)c1ccc2ccccc2c1 [Example 8213, 2-acryloylnaphthalene] | high | – | – |
| C=CC(=O)c1ccc2c(F)cccc2c1 [Example 8257, 1-fluoro-6-acryloylnaphthalene] | high | – | – |
| C=CC(=O)c1ccc(Br)cc1 [Example 8266, 1-acryloyl-4-bromobenzene] | high | – | – |
| C=CC(=O)C(c1ccccc1)c1ccccc1 [Example 8269, Acryloyldiphenylmethane] | high | – | – |
| CC(C)N(CCC(=O)c1ccc(Cc2ccccc2)cc1)Cc1ccccc1 [Example 8285, 2-(N-isopropylbenzyl)aminoethyl-4-benzylphenylketone] | strongly | higher than SOCE-inhibiting activity | – |

| Molecule | TG-activity-inhibiting action or protein-crosslinking-inhibiting action (in words) [1] | IICR-inhibiting activity compared with SOCE-inhibiting activity (in words) [2] | also measured |
| --- | --- | --- | --- |
| C=CC(=O)c1cccc2ccccc12 [Example 8293, 1-acryloylnaphthalene] | high | – | – |
| CC(C)N(CCC(=O)c1ccccn1)Cc1ccccc1 [Example 8305, 2-(N-isopropylbenzyl)aminoethyl-2-pyridylketone] | strongly | higher than SOCE-inhibiting activity | – |
| CC(C)N(CCC(=O)c1ccco1)Cc1ccccc1 [Example 8370, 2-(N-isopropylbenzyl)aminoethyl-2-furylketone] | strongly | higher than SOCE-inhibiting activity | – |
| O=C(CCN(CCO)Cc1ccccc1)c1cnccn1 [Example 8397, 2-(N-benzylhydroxyethyl)aminoethyl-2-pyrazylketone] | strongly | higher than SOCE-inhibiting activity | – |
| Cc1ccc(C(=O)CCN(CCO)Cc2ccccc2)o1 [Example 8404, 2-(N-benzylhydroxyethyl)aminoethyl-5-methyl-2-furylketone] | strongly | higher than SOCE-inhibiting activity | – |
| Cc1ccc(C(=O)CCN(Cc2ccccc2)C(C)(C)C)o1 [Example 8405, 2-(N-benzyl-t-butyl)aminoethyl-5-methyl-2-furylketone] | strongly | higher than SOCE-inhibiting activity | – |
| CCN(CCC(=O)c1ccco1)Cc1ccccc1 [Example 8412, 2-(N-benzylethyl)aminoethyl-2-furylketone] | strongly | higher than SOCE-inhibiting activity | – |
| CC(C)(C)N(CCC(=O)c1cccs1)Cc1ccccc1 [Example 8638, 2-(N-t-butylbenzyl)aminoethyl-2-thiophenylketone] | strongly | higher than SOCE-inhibiting activity | – |
| CCc1nccnc1C(=O)CCN(Cc1ccccc1)C(C)C [Example 8656, 2-(N-isopropylbenzyl)aminoethyl-2-(3-ethyl)-pyrazylketone] | strongly | higher than SOCE-inhibiting activity | – |
| CCc1nccnc1C(=O)CCN(Cc1ccccc1)C(C)(C)C [Example 8658, 2-(N-t-butylbenzyl)aminoethyl-2-(3-ethyl)-pyrazylketone] | strongly | higher than SOCE-inhibiting activity | – |
| CC(C)N(CCC(=O)c1cc(Cl)sc1Cl)Cc1ccccc1 [Example 8659, 2-(N-isopropylbenzyl)aminomethyl-3-(2,5-dichlorothiophenyl)ketone] | strongly | higher than SOCE-inhibiting activity | – |
| Cc1nc(C)c(C(=O)CCN(Cc2ccccc2)C(C)C)s1 [Example 8666, 2-(N-benzylisopropyl)aminoethyl-5-(2,4-dimethylthiazolyl)ketone] | strongly | higher than SOCE-inhibiting activity | – |
| CN(CCC(=O)c1ccncc1)Cc1ccccc1 [Example 8673, 2-(N-methylbenzyl)aminoethyl-4-pyridylketone] | strongly | higher than SOCE-inhibiting activity | – |
| CC(C)(C)N(CCC(=O)c1cccnc1)Cc1ccccc1 [Example 8702, 2-(N-benzyl-t-butyl)aminoethyl-3-pyridylketone] | strongly | higher than SOCE-inhibiting activity | – |
| Methyl vinylketone [Example 57] | – | – | TG level ([1]; test compound 3 μmol): 84; TG level ([1]; test compound 10 μmol): 94; TG level ([1]; test compound 30 μmol): 37 |
